Assay results: patent US11446298B2, “Pyrimidine derivatives” (Idorsia Pharmaceuticals Ltd, priority 2017, dated 2022)

What was measured:
Format in all cases: cell-based
[1] = target: T1, PTGER4 (EP4) (Homo sapiens, UniProt P35408); assay: hEP4 b-Arrestin Assay (PathHunter HEK 293 PTGER4 b-arrestin cells, PGE2 20 nM); settings: antagonistic activity, beta-arrestin assay, HEK 293 PTGER4 cells, PGE2 20 nM (EC80); read-out: hEP4 b-arr IC50
T1 construct: host or cells: HEK 293 (PathHunter, stably transfected)
Description: (§1) The antagonistic activities of the compounds of formula (I) on the EP2 and EP4 receptors are also determined in accordance with the following experimental method.
(§2) The assay is using the PathHunter™ HEK 293 PTGER2 and PTGER4 b-arrestin cell lines from DiscoverX. The system is based on the Enzyme Fragment Complementation Technology. Two complementing fragments of the b-galactosidase enzyme are expressed within stably transfected cells. The larger portion of b-gal, termed EA for Enzyme Acceptor, is fused to the C-terminus of b-arrestin 2. The smaller fragment, termed ProLink™ tag, is fused to PTGER2 (EP2) or PTRGER4 (EP4) at the C-terminus. Upon activation, b-arrestin is recruited which forces the interaction of ProLink and EA, allowing complementation of the two fragments of b-gal and the formation of a functional enzyme which is capable of hydrolysing the substrate and generating a chemiluminescent signal.
(§3) The HEK 293 PTGER4 b-arrestin cells (DiscoverX 93-030-4C1) are detached from culture dishes with a cell dissociation buffer (Invitrogen, 13151-014), and collected in growing medium (GM: DMEM+Glutamax-I (Invitrogen 32430)/10% FCS, 1% Penicilin/streptomycin). 5000 cells per well of a 384 well plate (white with white bottom Greiner 781080) are seeded in 20 ul per well of GM. Plate is incubated at 37° C., 5% CO2 for 24 hours.
(§4) Stock solutions of test compounds are made at a concentration of 10 mM in DMSO, and serially diluted in DMSO to concentrations required for inhibition dose response curves (tested concentration range 10 μM-2 nM or 1 μM-0.2 nM).
PGE2 (Cayman 14010, stock solution: 100 μM in DMSO) is used as agonist at 20 nM final concentration, corresponding to EC80.
Five microliters of diluted compounds are transferred into the assay plate. Plate is pre-incubated 15 minutes at 37° C. Then five microliters of PGE2 (final conc. 20 nM) are transferred into the assay plate. Plate is incubated 120 minutes at 37° C.
(§5) PathHunter Glo Detection Kit components are thawed and mix according to manufacturer's instructions: 1 part Galacton Star Substrate with 5 parts Emerald II™ Solution, and 19 parts of PathHunter Cell Assay Buffer, respectively. Twelve μl of reagent are transferred to the assay plate and incubate for 1 hour at room temperature in the dark. Luminescence counts are read on a BMG Fluostar Optima reader according to manufacturer's instructions.
(§6) For each compound concentration calculate of the percentage of activity compared to DMSO control value as average ±STDEV. (each concentration is measured in duplicate)
(§7) IC50 values and curves are generated with XLfit software (IDBS) using Dose-Response One Site model 203. When compounds were measured multiple times, mean values are given.

[2] = target: T2, EP2 (Homo sapiens, UniProt P43116); assay: hEP2 cAMP Assay (SF295 glioblastoma cells, HTRF cAMP, PGE2 75 nM); settings: antagonistic activity, PGE2 75 nM (EC80)
T2 construct: SF295 glioblastoma cells express high endogenous EP2 and no EP4; host or cells: SF295 glioblastoma cells
Outline: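 IC50 values derive from duplicate-point curves of percent cAMP relative to DMSO, read by HTRF (665/620 nm) against a cAMP calibrator. Compounds (30 μM to 0.01 nM ranges) were given 45 min at room temperature before 30 min with 75 nM PGE2, in EP2-only SF295 cells with 2 mM IBMX.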

[3] = target: T3, EP4 (Homo sapiens, UniProt P35408); assay: hEP4 cAMP Assay (BT549 breast cancer cells, HTRF cAMP, PGE2 6 nM); settings: antagonistic activity, PGE2 6 nM (EC80)
T3 construct: BT549 breast cancer cells, express high endogenous EP4 levels and very low EP2 levels; host or cells: BT549 breast cancer cells
Outline: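 BT549 cells (endogenous EP4, very low EP2) in HBSS/20 mM HEPES/0.2% BSA/2 mM IBMX, pre-incubated 45 min RT with compound, then stimulated 30 min RT with PGE2 6 nM (EC80). cAMP read by HTRF competitive immunoassay (665/620 nm), converted via calibrator to % of DMSO control; IC50 from duplicate dose-response curves.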

[4] = target: T4, PTGER2 (EP2) (Homo sapiens, UniProt P43116); assay: hEP2 b-Arrestin Assay (PathHunter HEK 293 PTGER2 b-arrestin cells, PGE2 5 μM); settings: antagonistic activity, beta-arrestin assay, HEK 293 PTGER2 cells, PGE2 5 μM (EC80); read-out: hEP2 b-arr IC50
T4 construct: host or cells: HEK 293 (PathHunter, stably transfected)
Description: as §1, §2
as §3, with “293 PTGER2” for “293 PTGER4”, “(DiscoverX 93-021-4C1)” for “(DiscoverX 93-030-4C1)”, “20 μl” for “20 ul”
as §4
PGE2 (Cayman 14010, stock solution: 10 mM in DMSO) is used as agonist at 5 μM final concentration, corresponding to EC80.
Five microliters of diluted compounds are transferred into the assay plate. Plate is pre-incubated 15 minutes at 37° C. Then five microliters of PGE2 (final conc. 5 μM) are transferred into the assay plate. Plate is incubated 120 minutes at 37° C.
as §5, §6, §7

T2 sequence (P43116 whole entry): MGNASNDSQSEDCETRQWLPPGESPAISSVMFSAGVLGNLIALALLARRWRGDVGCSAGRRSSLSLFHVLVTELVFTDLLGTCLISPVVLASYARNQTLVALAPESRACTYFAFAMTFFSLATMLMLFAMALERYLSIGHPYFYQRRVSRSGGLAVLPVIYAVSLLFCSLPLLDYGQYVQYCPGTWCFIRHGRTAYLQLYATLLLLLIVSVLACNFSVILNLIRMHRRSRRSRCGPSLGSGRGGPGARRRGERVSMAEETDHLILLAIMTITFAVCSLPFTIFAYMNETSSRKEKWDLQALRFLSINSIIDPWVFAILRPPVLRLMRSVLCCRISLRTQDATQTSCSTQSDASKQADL
T4 sequence (P43116 whole entry): as above
T1 sequence (P35408 whole entry): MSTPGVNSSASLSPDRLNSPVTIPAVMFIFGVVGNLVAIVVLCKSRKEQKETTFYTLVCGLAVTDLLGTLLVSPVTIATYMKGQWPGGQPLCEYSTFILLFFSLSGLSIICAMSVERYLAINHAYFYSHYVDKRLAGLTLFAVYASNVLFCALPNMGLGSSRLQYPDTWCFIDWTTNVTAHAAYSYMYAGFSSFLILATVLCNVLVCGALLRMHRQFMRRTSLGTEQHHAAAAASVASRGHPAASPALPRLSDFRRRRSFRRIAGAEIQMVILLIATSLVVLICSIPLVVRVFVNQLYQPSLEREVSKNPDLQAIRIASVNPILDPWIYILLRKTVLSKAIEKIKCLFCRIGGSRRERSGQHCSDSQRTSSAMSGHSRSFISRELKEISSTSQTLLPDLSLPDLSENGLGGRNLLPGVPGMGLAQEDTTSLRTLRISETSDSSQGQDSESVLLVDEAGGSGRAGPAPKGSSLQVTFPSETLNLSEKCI
T3 sequence (P35408 whole entry): as above

Compound | IC50 [1] [nM] | IC50 [2] [nM] | IC50 [3] [nM] | IC50 [4] [nM]
COc1ccc2cc(F)cc(CCNc3cc(-c4cc(C(F)(F)F)c(C(=O)O)s4)ncn3)c2n1 [Example 152, 5-{6-[2-(6-Fluoro-2-methoxy-quinolin-8-yl)-ethylamino]-pyrimidin-4-yl}-3-trifluoromethyl-thiophene-2-carboxylic acid] | 107 | 506 | 197 | 
Cc1c(C)n(C)c2c(CCNc3cc(-c4ccc(C(=O)O)c(OC5CCC5)c4)ncn3)cccc12 [Example 28, 2-Cyclobutoxy-4-{6-[2-(1,2,3-trimethyl-1H-indol-7-yl)-ethylamino]-pyrimidin-4-yl}-benzoic acid] | 1400 | 684 | 988 | 
CCOc1cc(-c2cc(NCCc3ccc(C(F)F)c4ccccc34)ncn2)ccc1C(=O)O [Example 71, 4-{6-[2-(4-Difluoromethyl-naphthalen-1-yl)-ethylamino]-pyrimidin-4-yl}-2-ethoxy-benzoic acid] | 91 | 374 | 128 | 
CCOc1cc(-c2cc(NCCc3c(OC)ccc4c(OC)cccc34)ncn2)sc1C(=O)O [Example 53, 5-{6-[2-(2,5-Dimethoxy-naphthalen-1-yl)-ethylamino]-pyrimidin-4-yl}-3-ethoxy-thiophene-2-carboxylic acid] | 5 | 305 | 17 | 
CCOc1cc(-c2cc(NCCc3ccc(C)c4ccccc34)ncn2)ccc1OCC(=O)O [Example 76, (2-Ethoxy-4-{6-[2-(4-methyl-naphthalen-1-yl)-ethylamino]-pyrimidin-4-yl}-phenoxy)-acetic acid] | 66 | 259 | 116 | 
COc1ccc2ncccc2c1CCNc1cc(-c2ccc3c(=O)[nH]n(C)c3c2)ncn1 [Example 117, 6-{6-[2-(6-Methoxy-quinolin-5-yl)-ethylamino]-pyrimidin-4-yl}-1-methyl-1,2-dihydro-indazol-3-one] | 686 | 564 | 163 | 
CCOc1cc(-c2cc(NCCc3c(C)ccc4ccccc34)ncn2)ccc1OCC(=O)O [Example 48, (2-Ethoxy-4-{6-[2-(2-methyl-naphthalen-1-yl)-ethylamino]-pyrimidin-4-yl}-phenoxy)-acetic acid] |  | 147 | 729 | 22
O=C(O)c1ccc(-c2cc(NCCc3cccc4sccc34)ncn2)cc1OC1CCC1 [Example 107, 4-[6-(2-Benzo[b]thiophen-4-yl-ethylamino)-pyrimidin-4-yl]-2-cyclobutoxy-benzoic acid] |  | 250 | 267 | 149
COc1ccc2c(C)ccnc2c1CCNc1cc(-c2ccc(C(=O)O)c(OC3CCC3)c2)ncn1 [Example 87, 2-Cyclobutoxy-4-{6-[2-(7-methoxy-4-methyl-quinolin-8-yl)-ethylamino]-pyrimidin-4-(C)yl}-benzoic acid] |  | 103 | 850 | 70
CCOc1cc(-c2cc(NCCc3c(OC)ccc4ncccc34)ncn2)ccc1OCC(=O)O [Example 66, (2-Ethoxy-4-{6-[2-(6-methoxy-quinolin-5-yl)-ethylamino]-pyrimidin-4-yl}-phenoxy)-acetic acid] |  | 227 | 714 | 350
Cc1ccc2cnccc2c1CCNc1cc(-c2ccc(C(=O)O)c(OC3CCC3)c2)ncn1 [Example 84, 2-Cyclobutoxy-4-{6-[2-(6-methyl-isoquinolin-5-yl)-ethylamino]-pyrimidin-4-yl}-benzoic acid] |  | 179 | 989 | 149
O=C(O)c1ccc(-c2cc(NCCc3c(F)ccc4ccccc34)ncn2)cc1OC1CCC1 [Example 94, 2-Cyclobutoxy-4-{6-[2-(2-fluoro-naphthalen-1-yl)-ethylamino]-pyrimidin-4-yl}-benzoic acid] |  | 53 | 368 | 34
CCOc1cc(-c2cc(NCCc3c(OC)ccc4ccccc34)ncn2)ccc1OCC(=O)O [Example 47, (2-Ethoxy-4-{6-[2-(2-methoxy-naphthalen-1-yl)-ethylamino]-pyrimidin-4-yl}-phenoxy)-acetic acid] |  | 123 | 654 | 45
CCOc1cc(-c2cc(NCCc3ccc(F)c4ccccc34)ncn2)ccc1C(=O)O [Example 19, 2-Ethoxy-4-{6-[2-(4-fluoro-naphthalen-1-yl)-ethylamino]-pyrimidin-4-yl}-benzoic acid] |  | 93 | 646 | 129

Second part, the compound after the results:

IC50 [1] [nM] | IC50 [2] [nM] | IC50 [3] [nM] | IC50 [4] [nM] | Compound
 | 53 | 596 | 126 | CCOc1cc(-c2cc(NCCc3cccc4cc(C)[nH]c34)ncn2)sc1C(=O)O [Example 37, 3-Ethoxy-5-{6-[2-(2-methyl-1H-indol-7-yl)-ethylamino]-pyrimidin-4-yl}-thiophene-2-carboxylic acid]
 | 89 | 428 | 119 | COc1ccc2ncccc2c1CCNc1cc(-c2ccc(-c3cc(O)no3)cc2)ncn1 [Example 83, 5-(4-{6-[2-(6-Methoxy-quinolin-5-yl)-ethylamino]-pyrimidin-4-yl}-phenyl)-isoxazol-3-ol]
 | 41 | 308 | 62 | COc1ccc2ccccc2c1CCNc1cc(-c2ccc(C(=O)O)c(CC(C)C)c2)ncn1 [Example 122, 2-Isobutyl-4-{6-[2-(2-methoxy-naphthalen-1-yl)-ethylamino]-pyrimidin-4-yl}-benzoic acid]
 | 20 | 416 | 9 | COc1ccc2ccccc2c1CCNc1cc(-c2cc3ccc(C(=O)O)cc3[nH]2)ncn1 [Example 127, 2-{6-[2-(2-Methoxy-naphthalen-1-yl)-ethylamino]-pyrimidin-4-yl}-1H-indole-6-carboxylic acid]
 | 27 | 459 | 47 | COc1ccc2ncccc2c1CCNc1cc(-c2ccc(-c3nnc(N)s3)cc2)ncn1 [Example 113, {6-[4-(5-Amino-[1,3,4]thiadiazol-2-yl)-phenyl]-pyrimidin-4-yl}-[2-(6-methoxy-quiolin-5-yl)-ethyl]-amine]
 | 35 | 492 | 224 | Cc1ccc2c(cnn2C)c1CCNc1cc(-c2ccc3ncccc3c2)ncn1 [Example 114, [2-(1,5-Dimethyl-1H-indazol-4-yl)-ethyl]-(6-quinolin-6-yl-pyrimidin-4-yl)-amine]
